Where two headings read alike, the source gives them in different places.
Legend:
[1] = system: PANK2 silenced human neuroblastoma IMR32 cells (PANK2−/−); test: Coenzyme A assay in PANK2 silenced cells (LC-MS quantification of free CoA); format: cell-based; conditions: compound added twice (24 h + 24 h), relative to 0.1% DMSO controls
Outline: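 PANK2 shRNA-silenced IMR32 neuroblastoma cells were treated with compound (0.1% DMSO) for 24 h, then re-dosed with fresh compound for a further 24 h at 37 °C. TFA extracts of 1×10^6 cells were assayed for free CoA by LC-MS/MS (MRM 768.1→261.6/136.1). Results are given as fold change versus DMSO controls.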

[2] = Stability in human plasma; format: in vitro ADME; conditions: human, plasma, 37° C.
Description: Compounds and positive control samples were dissolved in 100% DMSO at 3 mM. To investigate the stability of the test compounds in plasma, samples were made by diluting test compounds into plasma from the stock solutions to obtain a test compound concentration of 3 μM (0.1% DMSO). Before addition of a test compound, 990 μl of plasma were preincubated at 37° C. for 5 min in eppendorf. After addition of a test compound, 70 μl for each time point were transferred to a 96-deepwell plate, previously warmed at 37° C. in a DUBNOFF water bath. Each compound was tested at five time points, in duplicate (10, 20, 30, 40 and 60 min). At each time point, an aliquot of 50 μl was taken and transferred to a new 96-deepwell plate, and the reaction was stopped with 200 μl of 100% acetonitrile containing 0.1% formic acid and the appropriate internal standard. Then samples were centrifuged at 1100×g for 30 min at +4° C. and supernatants were transferred to a new 96-deepwell plate. Samples were evaporated under N2 and reconstituted in H2O/ACN 0.1% Formic Acid (98:2). Analysis was performed without a calibration curve (Acquity UPLC-Waters; SciexAPI4000). Time 0 was obtained by adding acetonitrile before addition of the test compound.

[3] = Diastereoisomer A (upfield shift in 31P NMR), read-out: t1/2, Human Plasma, Diastereoisomer A (converted)
[4] = Diastereoisomer B, read-out: t1/2, Human Plasma, Diastereoisomer B (converted)

half-life at 3 µM [2, 3]	half-life at 3 µM [2, 4]	Structure (SMILES)	PANK2−/− CoA (Fold Increase): fold increase in Coenzyme A (CoA) levels relative to controls [1]
> 1 h	–	C[C@H](NP1(=O)OCC(C)(C)[C@H](C(=O)NCCC(=O)OCCN2CCCC2)O1)C(=O)OCCc1ccccc1 (stereo partly drawn) [compound 44, phenethyl ((4R)-5,5-dimethyl-2-oxido-4-((3-oxo-3-(2-(pyrrolidin-1-yl)ethoxy)propyl)carbamoyl)-1,3,2-dioxaphosphinan-2-yl)-L-alaninate]	1.62 Fold Increase
< 0.16 h	< 0.16 h	C[C@H](NP1(=O)OCC(C)(C)[C@H](C(=O)NCCC(=O)OC2Cc3ccccc3C2)O1)C(=O)OCCc1ccccc1 (stereo partly drawn) [1-54, 2,3-dihydro-1H-inden-2-yl 3-((4R)-5,5-dimethyl-2-oxido-2-(((S)-1-oxo-1-phenethoxypropan-2-yl)amino)-1,3,2-dioxaphosphinane-4-carboxamido)propanoate]	1.13 Fold Increase
> 1 h	–	COC(=O)CCNC(=O)[C@@H]1O[P@](=O)(N[C@H](C(=O)OCCc2ccccc2)C(C)C)OCC1(C)C [compound 45, phenethyl ((2S,4R)-4-((3-methoxy-3-oxopropyl)carbamoyl)-5,5-dimethyl-2-oxido-1,3,2-dioxaphosphinan-2-yl)-L-valinate]	1.3 Fold Increase
> 1 h	> 1 h	C[C@H](NP1(=O)OCC(C)(C)[C@H](C(=O)NCCC(=O)O[C@@H]2CCOC2)O1)C(=O)OCCc1ccccc1 (stereo partly drawn) [1-55, phenethyl ((4R)-5,5-dimethyl-2-oxido-4-((3-oxo-3-(((R)-tetrahydrofuran-3-yl)oxy)propyl)carbamoyl)-1,3,2-dioxaphosphinan-2-yl)-L-alaninate]	2.09 Fold Increase
–	–	COC(=O)CCNC(=O)[C@@H]1OP(=O)(OCOC(=O)c2cc(C)nn2C)OCC1(C)C (stereo partly drawn) [2-145, (((4R)-4-((3-methoxy-3-oxopropyl)carbamoyl)-5,5-dimethyl-2-oxido-1,3,2-dioxaphosphinan-2-yl)oxy)methyl 1,3-dimethyl-1H-pyrazole-5-carboxylate]	42.44 Fold Increase
–	–	COC(=O)CCNC(=O)[C@@H]1OP(=O)(OCOC(=O)N[C@@H](CSC(=O)C(C)(C)C)C(=O)OCc2ccccc2)OCC1(C)C (stereo partly drawn) [2-174, benzyl N-(((((4R)-4-((3-methoxy-3-oxopropyl)carbamoyl)-5,5-dimethyl-2-oxido-1,3,2-dioxaphosphinan-2-yl)oxy)methoxy)carbonyl)-S-pivaloyl-L-cysteinate]	93.99 Fold Increase
–	–	COC(=O)CCNC(=O)[C@@H]1O[P@](=O)(OCOC(=O)NCCSC(=O)[C@@H](N)C(C)C)OCC1(C)C [2-193, methyl 3-((2R,4R)-2-((((2-((L-valyl)thio)ethyl)carbamoyl)oxy)methoxy)-5,5-dimethyl-2-oxido-1,3,2-dioxaphosphinane-4-carboxamido)propanoate]	5.03 Fold Increase
–	–	COC(=O)CCNC(=O)[C@@H]1O[P@@](=O)(Oc2ccc(C[C@H](NC(=O)OC(C)(C)C)C(=O)OC)cc2)OCC1(C)C (single isomer, unassigned) [2-204]	5.75 Fold Increase
–	–	COC(=O)CCNC(=O)[C@@H]1O[P@@](=O)(OCOC(=O)c2scnc2C(C)C)OCC1(C)C [2-187, (((2S,4R)-4-((3-methoxy-3-oxopropyl)carbamoyl)-5,5-dimethyl-2-oxido-1,3,2-dioxaphosphinan-2-yl)oxy)methyl 4-isopropylthiazole-5-carboxylate]	112.41 Fold Increase
–	–	COC(=O)CCNC(=O)[C@@H]1OP(=O)(OCOC(=O)c2cc(C(C)(C)C)n[nH]2)OCC1(C)C (stereo partly drawn) [2-146, (((4R)-4-((3-methoxy-3-oxopropyl)carbamoyl)-5,5-dimethyl-2-oxido-1,3,2-dioxaphosphinan-2-yl)oxy)methyl 3-(tert-butyl)-1H-pyrazole-5-carboxylate]	84.86 Fold Increase
–	–	CCOC(=O)[C@H](CC(C)C)NP1(=O)OCC(C)(C)[C@H](C(=O)NCCC(=O)OC)O1 (stereo partly drawn) [compound 8, ethyl ((4R)-4-((3-methoxy-3-oxopropyl)carbamoyl)-5,5-dimethyl-2-oxido-3,3,2-dioxaphosphinan-2-yl)-L-leucinate]	0.69 Fold Increase
–	–	COC(=O)CCNC(=O)[C@@H]1OP(=O)(N[C@H](C(=O)OC)C2CCCCC2)OCC1(C)C (stereo partly drawn) [compound 12, methyl 3-((4R)-2-(((S)-1-cyclohexyl-2-methoxy-2-oxoethyl)amino)-5,5-dimethyl-2-oxido-1,3,2-dioxaphosphinane-4-carboxamido)propanoate]	1.28 Fold Increase
–	–	COC(=O)CCNC(=O)[C@@H]1O[P@@](=O)(Oc2ccc(F)cc2)OCC1(C)C [2-178, methyl 3-((2S,4R)-2-(4-fluorophenoxy)-5,5-dimethyl-2-oxido-1,3,2-dioxaphosphinane-4-carboxamido)propanoate]	2.3 Fold Increase
–	–	COC(=O)CCNC(=O)[C@@H]1O[P@@](=O)(OCOC(=O)C2(C(N)=O)CC2)OCC1(C)C [2-131, (((2S,4R)-4-((3-methoxy-3-oxopropyl)carbamoyl)-5,5-dimethy)-2-oxido-1,3,2-dioxaphosphinan-2-yl)oxy)methyl 1-carbamoylcyclopropane-1-carboxylate]	1.44 Fold Increase
–	–	COC(=O)CCNC(=O)[C@@H]1OP(=O)(N2CCCCC2)OCC1(C)C (stereo in doubt) [compound 133, methyl 3-((2R,4R)-5,5-dimethyl-2-oxido-2-(piperidin-1-yl)-1,3,2-dioxaphosphinane-4-carboxamido)propanoate]	1.45 Fold Increase
–	–	COC(=O)CCNC(=O)[C@@H]1O[P@@](=O)(OCOC(=O)c2scnc2C(C)(C)C)OCC1(C)C [2-192, (((2S,4R)-4-((3-methoxy-3-oxopropyl)carbamoyl)-5,5-dimethyl-2-oxido-1,3,2-dioxaphosphinan-2-yl)oxy)methyl 4-(tert-butyl)thiazole-5-carboxylate]	2.52 Fold Increase
–	–	CC(C)(C)OC(=O)CCNC(=O)[C@@H]1OP(=O)(O)OCC1(C)C [Compound No. 2-111, tert-butyl 3-((4R)-2-hydroxy-5,5-dimethyl-2-oxido-1,3,2-dioxaphosphinane-4-carboxamido)propanoate]	1.16 Fold Increase
–	–	CC(C)(C)OC(=O)CCNC(=O)[C@@H]1O[P@](=O)(OCc2ccccc2)OCC1(C)C [Compound No. 63, tert-butyl 3-((4R)-2-(benzyloxy)-5,5-dimethyl-2-oxido-1,3,2-dioxaphosphinane-4-carboxamido)propanoate]	2.24 Fold Increase
–	–	COC(=O)CCNC(=O)[C@@H]1O[P@](=O)(Oc2ccc(S(F)(F)(F)(F)F)cc2)OCC1(C)C (single isomer, unassigned) [Compound No. 2-125]	34.02 Fold Increase
–	–	COC(=O)CCNC(=O)[C@@H]1O[P@@](=O)(OC(C)OC(=O)C(C)C)OCC1(C)C (stereo partly drawn) [compound 106, 1-(((2S,4R)-4-((3-methoxy-3-oxopropyl)carbamoyl)-5,5-dimethyl-2-oxido-1,3,2-dioxaphosphinan-2-yl)oxy)ethyl isobutyrate]	2.66 Fold Increase
–	–	COC(=O)CCNC(=O)[C@@H]1O[P@](=O)(NCC2CCCO2)OCC1(C)C (stereo partly drawn) [compound 119, methyl 3-((2S,4R)-5,5-dimethyl-2-oxido-2-(((tetrahydrofuran-2-yl)methyl)amino)-1,3,2-dioxaphosphinane-4-carboxamido)propanoate]	1.44 Fold Increase
–	–	COC(=O)CCNC(=O)[C@@H]1O[P@](=O)(OCOC(=O)c2scnc2C(C)C)OCC1(C)C [2-188, (((2R,4R)-4-((3-methoxy-3-oxopropyl)carbamoyl)-5,5-dimethyl-2-oxido-1,3,2-dioxaphosphinan-2-yl)oxy)methyl 4-isopropylthiazole-5-carboxylate]	131.48 Fold Increase
–	–	COC(=O)CCNC(=O)[C@@H]1OP(=O)(OCOC(=O)c2ccno2)OCC1(C)C (stereo partly drawn) [Compound No. 2-141, (((4R)-4-((3-methoxy-3-oxopropyl)carbamoyl)-5,5-dimethyl-2-oxido-1,3,2-dioxaphosphinan-2-yl)oxy)methyl isoxazole-5-carboxylate]	7.62 Fold Increase
